Assay results: US11110158B2, “Prostate-associated antigens and vaccine-based immunotherapy regimens” (Pfizer Inc., priority 2012, dated 2021)
Where “and” joins values, the source holds several entries; their conditions need not be identical. Identical values can stand only once.

Experiments:
293 cells = test: Expression of PSMA constructs in transfected 293 cells by FACS; format: cell-based; settings: 293 cells transfected with PJV7563 vector, stained with mouse anti-PSMA antibody three days later; cell surface expression
Protocol: The expression of the PSMA cytosolic, secreted, and modified antigens was determined by FACS. Mammalian 293 cells were transfected with the PJV7563 PMED vectors encoding the various immunogenic PSMA polypeptides. Three days later, the 293 cells were stained with mouse anti-PSMA antibody, followed with a fluorescent conjugated (FITC) rat anti-mouse secondary antibody.

human PSMA = test: IFNγ ELISPOT of PBMCs, PSMA vaccine with or without anti-CTLA-4 in Indian rhesus macaques, human PSMA recall antigens; format: in vivo, rhesus macaque
Source text: Three groups of male Indian rhesus macaques, five to six (#1 to 5 or 6) per each test group, were immunized with a nucleic acid (SEQ ID NO: 10) that encodes a human PSMA modified antigen (SEQ ID NO: 9) delivered by adenovirus (1e11 V.P. injected intramuscularly) followed by 2 DNA immunizations (8 actuations/immunization, 4 actuations per each right and left side of the lower abdomen) by PMED with 6 and 9 week intervals respectively. Animals in Groups 2 and 3 additionally received bilateral intradermal injections of 3 mg of CpG (PF-03512676) subsequently after the PMED immunization in proximity to each inguinal draining lymph node. Group 2 also received intravenous injections of anti-CTLA-4 monoclonal antibody (CP-675, 206) at 10 mg/kg and group 3 received intradermal injections of anti-CTLA-4 monoclonal antibody (CP-675, 206) at 5 mg/kg in proximity to each left and right inguinal vaccine draining lymph node at the time of the second PMED immunization.
Peripheral blood samples were collected from each animal sixteen days after the last PMED immunization. Peripheral blood mononuclear cells (PBMCs) were isolated from the samples and were subjected to an IFNγ ELISPOT assay to measure the PSMA specific T cell responses. Briefly, 4e5 PBMCs from individual animals were plated per well with pools of PSMA specific peptides each at 2 ug/ml hPSMA ECD protein at 10 ug/ml, rhesus PSMA ECD protein at 10 ug/ml or nonspecific control peptides (human HER2 peptide pool) each at 2 ug/ml in IFNγ ELISPOT plates. The plates were incubated for 16 hrs at 37° C. and 5% CO2 and washed and developed after incubation as per manufacturer's instruction. The number of IFNγ spot forming cells (SFC) were counted by CTL reader. Each condition was performed in duplicates.
A capture antibody specific to IFNγ([…]BD Bioscience, #51-2525kc) is coated onto a polyvinylidene fluoride (PVDF) membrane in a microplate overnight at 4° C. The plate is blocked with serum/protein to prevent nonspecific binding to the antibody. After blocking, effector cells (such as splenocytes isolated from immunized mice or PBMCs isolated from rhesus macaques) and targets (such as PSMA peptides from peptide library, target cells pulsed with antigen specific peptides or tumor cells expressing the relevant antigens) are added to the wells and incubated overnight at 37° C. in a 5% CO2 incubator. Cytokine secreted by effector cells are captured by the coating antibody on the surface of the PVDF membrane. After removing the cells and culture media, 100 μl of a biotinylated polyclonal anti-humanIFNγ antibody was added to each of the wells for detection. The spots are visualized by adding streptavidin-horseradish peroxidase and the precipitate substrate, 3-amino-9-ethylcarbazole (AEC), to yield a red color spot as per manufacturer's (Mabtech) protocol. Each spot represents a single cytokine producing T cell.

[1] = Group 2, vaccine + CpG 3 mg intradermal + aCTLA4 10 mg/kg intravenous (IV), rhesus PBMCs, normalized to 1e6 PBMCs, one cell per animal, 10 mg/kg
[2] = Group 3, vaccine + CpG 3 mg intradermal + aCTLA4 5 mg/kg intradermal (ID) near each inguinal node, rhesus PBMCs, normalized to 1e6 PBMCs, ^ too numerous to count, 5 mg/kg

Substance	Average mean fluorescent intensity (293 cells)	PSMA specific IFNγ SFC, recall antigen H1 (human PSMA; [1])	PSMA specific IFNγ SFC, recall antigen H2 (human PSMA; [1])	PSMA specific IFNγ SFC, recall antigen P1 (human PSMA; [1])	PSMA specific IFNγ SFC, recall antigen P2 (human PSMA; [1])	PSMA specific IFNγ SFC, recall antigen P3 (human PSMA; [1])	PSMA specific IFNγ SFC, recall antigen hPSMA protein (human PSMA; [1])	PSMA specific IFNγ SFC, recall antigen H2 (human PSMA; [2])	PSMA specific IFNγ SFC, recall antigen hPSMA protein (human PSMA; [2])	IFNγ T cell responses to PSMA specific peptides and proteins (human PSMA; group 2: vaccine + CpG (PF-03512676) + systemic (intravenous) anti-CTLA-4 10 mg/kg, versus vaccine alone)	IFNγ T cell responses to PSMA specific peptides and proteins (human PSMA; group 3: vaccine + CpG + anti-CTLA-4 delivered locally by intradermal injections near the vaccine draining lymph node)
PSMA modified: membrane-bound polypeptide of amino acids 15-750 of human PSMA, SEQ ID NO: 9; tested as DNA construct	12270	–	–	–	–	–	–	–	–	–	–
Tremelimumab: fully human IgG2 anti-CTLA-4 monoclonal antibody, CAS 745013-59-6, SEQ ID NOs:42 and 43	–	71.3 SFC and 2.5 SFC and 1063.8 SFC and 147.5 SFC and 402.5 SFC	292.5 SFC and 108.8 SFC and 82.5 SFC and 983.8 SFC and 573.8 SFC	23.8 SFC and 0.0 SFC and 58.8 SFC and 25.0 SFC and 15.0 SFC	57.5 SFC and 61.3 SFC and 41.3 SFC and 318.8 SFC and 312.5 SFC	1.3 SFC and 0.0 SFC and 7.5 SFC and 27.5 SFC and 5.0 SFC	278.8 SFC and 78.8 SFC and 1197.5 SFC and 1046.3 SFC and 707.5 SFC	≥ 1236.3^ SFC and ≥ 1247.5^ SFC and ≥ 1248.8^ SFC and 1173.8 SFC	≥ 1236.8^ SFC and ≥ 1247.5^ SFC and ≥ 1248.8^ SFC and ≥ 1242.5^ SFC	modestly enhanced	more potent and significant enhancement of the response
